Source: patent US20250271426A1, “REDUCTION OF BITTER TASTE OF ACTIVE PHARMACEUTICAL INGREDIENTS AND RELATED ASSAYS AND SCREENING METHODS” (Firmenich Incorporated, priority 2022, published 2025)

Tests used:
Experiment in all cases: FLIPR calcium assay, cells with promiscuous G protein transfected with bitter receptor cDNA
Format in all cases: cell-based
Conditions in all cases: responsive if cellular response of >10% over baseline, Fluo4-AM
[1] = biological target: T1, T2R receptor SEQ ID NO: 6 (S6) (Homo sapiens, UniProt P59540)
T1 construct: expressed in transfected cells; host or cells: cells expressing a promiscuous G protein (e.g., G16g44)
T1 sequence (P59540 1-309): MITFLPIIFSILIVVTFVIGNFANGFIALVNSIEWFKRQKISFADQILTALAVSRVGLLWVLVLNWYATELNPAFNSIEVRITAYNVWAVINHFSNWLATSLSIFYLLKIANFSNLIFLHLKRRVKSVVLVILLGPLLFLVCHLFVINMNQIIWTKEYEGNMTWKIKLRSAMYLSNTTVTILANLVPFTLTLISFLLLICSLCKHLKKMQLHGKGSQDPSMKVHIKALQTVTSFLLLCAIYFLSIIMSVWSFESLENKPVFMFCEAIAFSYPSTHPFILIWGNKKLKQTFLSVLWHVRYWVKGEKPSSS
Procedure, shortened: (§1)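 Cells carrying promiscuous G protein G16g44 were transfected with a single bitter receptor cDNA each, cultured 28 hours, then loaded with Fluo4-AM for 60 minutes. After washing, agonist addition and intracellular fluorescence were recorded together by FLIPR. A receptor counted as responsive at >10% over baseline.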

[2] = biological target: T2, T2R receptor SEQ ID NO: 2 (S2) (Homo sapiens, UniProt Q9NYW2)
T2 construct: expressed in transfected cells; host or cells: cells expressing a promiscuous G protein (e.g., G16g44)
T2 sequence (Q9NYW2 1-309): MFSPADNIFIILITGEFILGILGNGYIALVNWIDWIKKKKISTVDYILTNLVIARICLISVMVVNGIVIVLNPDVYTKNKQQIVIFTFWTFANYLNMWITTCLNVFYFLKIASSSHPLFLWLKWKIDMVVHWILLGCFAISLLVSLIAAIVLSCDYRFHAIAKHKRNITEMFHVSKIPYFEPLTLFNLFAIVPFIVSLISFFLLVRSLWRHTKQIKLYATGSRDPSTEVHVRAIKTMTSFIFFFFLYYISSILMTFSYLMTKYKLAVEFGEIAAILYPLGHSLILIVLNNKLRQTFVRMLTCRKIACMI
Procedure, shortened: as §1

[3] = biological target: T3, T2R receptor SEQ ID NO: 3 (S3) (Homo sapiens, UniProt Q9NYW0, T156M)
T3 construct: expressed in transfected cells; host or cells: cells expressing a promiscuous G protein (e.g., G16g44)
T3 sequence (Q9NYW0 1-307 T156M): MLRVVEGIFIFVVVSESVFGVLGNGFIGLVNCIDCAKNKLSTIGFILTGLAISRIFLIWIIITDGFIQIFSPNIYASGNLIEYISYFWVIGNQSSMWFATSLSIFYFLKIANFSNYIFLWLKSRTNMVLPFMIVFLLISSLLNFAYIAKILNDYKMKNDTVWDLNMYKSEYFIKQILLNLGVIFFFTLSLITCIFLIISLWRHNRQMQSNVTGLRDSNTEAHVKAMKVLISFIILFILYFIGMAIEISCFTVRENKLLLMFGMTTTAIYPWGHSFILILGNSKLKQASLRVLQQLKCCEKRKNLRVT
Procedure, shortened: as §1

[4] = biological target: T4, T2R receptor SEQ ID NO: 1 (S1) (Homo sapiens, UniProt Q9NYW7)
T4 construct: expressed in transfected cells; host or cells: cells expressing a promiscuous G protein (e.g., G16g44)
T4 sequence (Q9NYW7 1-299): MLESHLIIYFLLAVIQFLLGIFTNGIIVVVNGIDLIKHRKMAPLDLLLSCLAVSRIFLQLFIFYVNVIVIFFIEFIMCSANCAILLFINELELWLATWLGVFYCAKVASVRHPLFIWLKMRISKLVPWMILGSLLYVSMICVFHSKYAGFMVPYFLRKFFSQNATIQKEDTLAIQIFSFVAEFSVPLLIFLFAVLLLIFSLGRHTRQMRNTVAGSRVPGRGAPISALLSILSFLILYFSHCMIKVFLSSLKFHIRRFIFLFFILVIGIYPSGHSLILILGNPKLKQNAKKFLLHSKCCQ
Procedure, shortened: as §1

[5] = biological target: T5, T2R receptor SEQ ID NO: 4 (S4) (Homo sapiens, UniProt Q9NYV8)
T5 construct: expressed in transfected cells; host or cells: cells expressing a promiscuous G protein (e.g., G16g44)
T5 sequence (Q9NYV8 1-317): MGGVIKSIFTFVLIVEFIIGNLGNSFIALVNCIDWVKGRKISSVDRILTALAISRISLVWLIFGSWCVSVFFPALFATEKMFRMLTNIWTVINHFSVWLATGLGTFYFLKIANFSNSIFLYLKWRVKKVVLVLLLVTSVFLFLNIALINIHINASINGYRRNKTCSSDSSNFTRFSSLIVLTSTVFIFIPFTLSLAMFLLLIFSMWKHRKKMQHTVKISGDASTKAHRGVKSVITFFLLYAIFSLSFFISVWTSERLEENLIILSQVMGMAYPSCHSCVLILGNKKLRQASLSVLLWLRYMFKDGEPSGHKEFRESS
Procedure, shortened: as §1

[6] = biological target: T6, T2R receptor SEQ ID NO: 5 (S5) (Homo sapiens, UniProt P59534)
T6 construct: expressed in transfected cells; host or cells: cells expressing a promiscuous G protein (e.g., G16g44)
T6 sequence (P59534 18-338): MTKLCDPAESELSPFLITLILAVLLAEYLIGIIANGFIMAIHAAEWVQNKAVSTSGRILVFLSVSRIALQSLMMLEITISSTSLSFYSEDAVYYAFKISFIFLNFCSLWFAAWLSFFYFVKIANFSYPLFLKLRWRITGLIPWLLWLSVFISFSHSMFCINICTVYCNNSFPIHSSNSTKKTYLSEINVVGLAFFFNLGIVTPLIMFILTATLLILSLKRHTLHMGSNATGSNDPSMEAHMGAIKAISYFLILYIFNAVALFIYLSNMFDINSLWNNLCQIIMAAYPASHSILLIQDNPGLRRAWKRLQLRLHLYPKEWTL
Procedure, shortened: as §1

| SMILES | S6 positive response of T2R receptor to API [1] | S2 positive response of T2R receptor to API [2] | S3 positive response of T2R receptor to API [3] | S1 positive response of T2R receptor to API [4] | S4 positive response of T2R receptor to API [5] | S5 positive response of T2R receptor to API [6] |
| --- | --- | --- | --- | --- | --- | --- |
| CCn1cc(C(=O)O)c(=O)c2cc(F)c(N3CCNC(C)C3)c(F)c21 (stereo not drawn) [Lomefloxacin] | + (a “+” to indicate whether a particular T2R receptor showed a positive response to a particular API) | + (a “+” to indicate whether a particular T2R receptor showed a positive response to a particular API) |  |  |  |  |
| NCC1(CC(=O)O)CCCCC1 [Gabapentin] |  | + (a “+” to indicate whether a particular T2R receptor showed a positive response to a particular API) | + (a “+” to indicate whether a particular T2R receptor showed a positive response to a particular API) |  |  |  |
| C[C@]12C=CC(=O)C=C1CC[C@@H]1[C@@H]2C(=O)C[C@@]2(C)[C@H]1CC[C@]2(O)C(=O)CO [Prednisone] | + (a “+” to indicate whether a particular T2R receptor showed a positive response to a particular API) | + (a “+” to indicate whether a particular T2R receptor showed a positive response to a particular API) | + (a “+” to indicate whether a particular T2R receptor showed a positive response to a particular API) | + (a “+” to indicate whether a particular T2R receptor showed a positive response to a particular API) | + (a “+” to indicate whether a particular T2R receptor showed a positive response to a particular API) |  |
| CCCCC(CC)COC(=O)CC(C(=O)OCC(CC)CCCC)S(=O)(=O)O (stereo not drawn) [Docusate] |  | + (a “+” to indicate whether a particular T2R receptor showed a positive response to a particular API) |  | + (a “+” to indicate whether a particular T2R receptor showed a positive response to a particular API) | + (a “+” to indicate whether a particular T2R receptor showed a positive response to a particular API) |  |
| CN1CCN(CC(=O)N2c3ccccc3C(=O)Nc3cccnc32)CC1 [Pirenzepine] | + (a “+” to indicate whether a particular T2R receptor showed a positive response to a particular API) | + (a “+” to indicate whether a particular T2R receptor showed a positive response to a particular API) | + (a “+” to indicate whether a particular T2R receptor showed a positive response to a particular API) |  |  | + (a “+” to indicate whether a particular T2R receptor showed a positive response to a particular API) |
| CCN[C@H]1CN(CCCOC)S(=O)(=O)c2sc(S(N)(=O)=O)cc21 [Brinzolamide] | + (a “+” to indicate whether a particular T2R receptor showed a positive response to a particular API) | + (a “+” to indicate whether a particular T2R receptor showed a positive response to a particular API) | + (a “+” to indicate whether a particular T2R receptor showed a positive response to a particular API) | + (a “+” to indicate whether a particular T2R receptor showed a positive response to a particular API) |  |  |
| COc1ccc([C@@H]2Sc3ccccc3N(CCN(C)C)C(=O)[C@@H]2OC(C)=O)cc1 [Diltiazem] | + (a “+” to indicate whether a particular T2R receptor showed a positive response to a particular API) | + (a “+” to indicate whether a particular T2R receptor showed a positive response to a particular API) | + (a “+” to indicate whether a particular T2R receptor showed a positive response to a particular API) | + (a “+” to indicate whether a particular T2R receptor showed a positive response to a particular API) | + (a “+” to indicate whether a particular T2R receptor showed a positive response to a particular API) |  |
| COc1ccc2nc([S@@+]([O-])Cc3ncc(C)c(OC)c3C)[nH]c2c1 [Esomeprazole] | + (a “+” to indicate whether a particular T2R receptor showed a positive response to a particular API) | + (a “+” to indicate whether a particular T2R receptor showed a positive response to a particular API) | + (a “+” to indicate whether a particular T2R receptor showed a positive response to a particular API) |  | + (a “+” to indicate whether a particular T2R receptor showed a positive response to a particular API) |  |
| CN(C)CCC(c1ccc(Br)cc1)c1ccccn1 (stereo not drawn) [Brompheniramine] | + (a “+” to indicate whether a particular T2R receptor showed a positive response to a particular API) |  | + (a “+” to indicate whether a particular T2R receptor showed a positive response to a particular API) | + (a “+” to indicate whether a particular T2R receptor showed a positive response to a particular API) | + (a “+” to indicate whether a particular T2R receptor showed a positive response to a particular API) | + (a “+” to indicate whether a particular T2R receptor showed a positive response to a particular API) |
| CCN[C@H]1C[C@H](C)S(=O)(=O)c2sc(S(N)(=O)=O)cc21 [Dorzolamide] | + (a “+” to indicate whether a particular T2R receptor showed a positive response to a particular API) | + (a “+” to indicate whether a particular T2R receptor showed a positive response to a particular API) | + (a “+” to indicate whether a particular T2R receptor showed a positive response to a particular API) | + (a “+” to indicate whether a particular T2R receptor showed a positive response to a particular API) |  |  |
| C[C@H]1O[C@@H](O[C@H]2[C@@H](O)C[C@H](O[C@H]3[C@@H](O)C[C@H](O[C@H]4CC[C@@]5(C)[C@H](CC[C@@H]6[C@@H]5C[C@@H](O)[C@]5(C)[C@@H](C7=CC(=O)OC7)CC[C@]65O)C4)O[C@@H]3C)O[C@@H]2C)C[C@H](O)[C@@H]1O [Digoxin] | + (a “+” to indicate whether a particular T2R receptor showed a positive response to a particular API) | + (a “+” to indicate whether a particular T2R receptor showed a positive response to a particular API) | + (a “+” to indicate whether a particular T2R receptor showed a positive response to a particular API) |  | + (a “+” to indicate whether a particular T2R receptor showed a positive response to a particular API) |  |
